Source: patent US20250145600A1, “2-((4-((S)-2-(4-CHLORO-2-FLUOROPHENYL)-2-METHYLBENZO[D][1,3]DIOXOL-4-YL)PIPERIDIN-1-YL)METHYL)-1-(((S)-OXETAN-2-YL)METHYL)-1H-IMIDAZOLE DERIVATIVES AS ACTIVATORS OF THE GLP1 RECEPTOR FOR THE TREATMENT OF OBESITY” (Novartis AG, priority 2022, published 2025)

Target: human GLP1R (Homo sapiens, UniProt P43220)
Assay: Human GLP1R DERET internalization assay
Format: cell-based
Settings: HEK293-SNAP-hGLP1R-GloSensor cells
Protocol: Compounds of formula (I) according to the invention were tested in the following cellular assays that measure the intracellular cAMP concentration, beta-arrestin recruitment and receptor internalization. The cAMP is generated by the activation of GLP1R. The extent to which the GLP1R is internalized into the cell and away from the plasma membrane following activation is also shown in Table 2. EC50 for each assay is defined as the concentration of the compound that leads to half of the maximum response (after baseline correction). Emax is defined as the maximum response observed for the test compound, normalized to the maximum response observed for the endogenous ligand (GLP1(7-36)) to GLP1R.
Human GLP1R DERET Internalization Assay
The extent to which agonists internalize the human GLP1R was determined based on an optimized version of a RealTime FRET-based ‘DERET’ (Dissociation Enhanced Resonance Energy Transfer) assay. The technology relies on labeling of the SNAP-tagged GPCR with a SNAP-Lumi-Terbium (donor fluorophore, Cisbio, cat #SSNPTBD). The compounds are incubated with the cells over-expressing the GPCR of interest in the presence of an excess of fluorescein (acceptor fluorophore). When the GPCR is on the cell surface, the donor signal is quenched by the acceptor and the donor/acceptor ratio is low. As the GPCR internalizes, the donor signal is no longer quenched, and the acceptor is no longer excited so the donor/acceptor ratio increases.
HEK293-SNAP-hGLP1R-GloSensor cells (stably overexpressing SNAP-tagged hGLP1R) were seeded overnight in white 384-well poly-D-Lysine coated plates (Greiner Bio One, cat #781945) in regular DMEM growth medium (Gibco, cat #11965-092, 10% heat-inactivated FBS, 10 mM HEPES, 1× penicillin/streptomycin, 0.5 mg/mL geneticin (Gibco, cat #10131-035) and 0.25 mg/mL hygromycin B (Invitrogen, cat #10687010). On the assay day, cell medium was removed and 100 nM SNAP-Lumi-Tb reagent was added in Opti-MEM solution. The cells were incubated at 37° C. for 1 h. Cells were washed using a plate washer in assay buffer [1×HBSS (10× Gibco, cat #14065-056), 20 mM Hepes (Gibco, cat #15630-080), 1 mM CaCl2 (Fluka, cat #21114-1L), 1 mM MgCl2 (Ambion, cat #AM9530G) pH7.4], and 20 μL buffer with 0.1% BSA was added to each well. After leaving cells to equilibrate for […] at 37° C., 10 μL of Fluorescein (sodium salt, Sigma, cat #F6377, diluted in buffer) was added at 25 μM final concentration. To generate triplicate dose response curves, compounds were serially diluted 3-fold in assay buffer, then added to the cell assay plate to a final volume of 40 μL and final top concentrations starting at 30 μM. In the same plate and assay buffer as the tested compounds, a GLP1 (7-36) peptide (Bachem, cat #H-6795) control curve was included at a final top concentration of 1 μM in order to establish EC100. EC0 wells with buffer only were also included. The plate FRET fluorescence was measured immediately using a Perkin Elmer Envision with LANCE/DELFIA D400 single mirror, excitation filter X320, and emission filters M615_203 (donor emission) and M515 (acceptor emission), and then measured every 30 min. […] Plates were kept at 37° C. between reads. Data was expressed as the ratio of donor/acceptor emissions using Microsoft Excel and plotted in GraphPad Prism. In order to determine EC50 and Emax for internalization, data was calculated and expressed as percent of the GLP1 (7-36) EC100 control wells: [(sample signal−mean EC0 signal)/(mean EC100 of GLP1 (7-36) signal−mean EC0 signal)]*100 using Microsoft Excel. Curve fitting for EC50 determinations was performed using GraphPad Prism. The 4-parameter logistic model, Hill slope was used:
where Y is the functional response; X is the compound concentration; bottom is A0 or the minimum value (at 0 dose); top is Ainf or the maximum value (at infinite dose); EC50 is the point of inflection (i.e. the point on the sigmoid shaped curve halfway between A0 and Ainf). […]

Chain of human GLP1R (P43220 24-463): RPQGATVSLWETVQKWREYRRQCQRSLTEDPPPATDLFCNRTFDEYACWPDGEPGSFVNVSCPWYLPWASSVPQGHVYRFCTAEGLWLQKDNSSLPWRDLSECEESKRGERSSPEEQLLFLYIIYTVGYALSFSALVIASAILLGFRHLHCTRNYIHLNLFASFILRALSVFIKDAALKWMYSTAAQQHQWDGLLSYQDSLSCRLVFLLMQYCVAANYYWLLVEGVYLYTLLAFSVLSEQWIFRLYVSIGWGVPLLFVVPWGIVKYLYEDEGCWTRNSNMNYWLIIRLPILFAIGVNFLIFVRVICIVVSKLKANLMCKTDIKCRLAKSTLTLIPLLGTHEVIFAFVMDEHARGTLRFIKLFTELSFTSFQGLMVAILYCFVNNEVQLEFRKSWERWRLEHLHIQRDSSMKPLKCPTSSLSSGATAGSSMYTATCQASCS

## Cc1c(-c2ccc(C(=O)O)o2)nc(CN2CCC(c3cccc4c3O[C@@](C)(c3ccc(Cl)cc3F)O4)CC2)n1C[C@@H]1CCO1 [Compound C-24, 5-(2-((4-((S)-2-(4-chloro-2-fluorophenyl)-2-methylbenzo[d][1,3]dioxol-4-yl)piperidin-1-yl)methyl)-5-methyl-1-(((S)-oxetan-2-yl)methyl)-1H-imidazol-4-yl)furan-2-carboxylic acid]
Top concentration 30 μM
  EC50: 490 nM
Relative to GLP1(7-36)
  Emax: 19%
